#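 In this assay, cells in 96-well plates receive the compound at five concentrations for 48 hours. Endpoints are linearly interpolated between the surrounding concentrations. At the GI50, growth is halved. The concentration for full growth arrest is given as TGI.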
# How the values were obtained:
# Assay in all cases: growth of human tumour cells (NCI), 48 h
# HOP-62 NSCLC = system: HOP-62 NSCLC
# NCI-H522 lung = system: NCI-H522 lung
# 786-0 renal = system: 786-0 renal
# UACC-257 melanoma = system: UACC-257 melanoma
# SK-MEL-5 melanoma = system: SK-MEL-5 melanoma
# CAKI-1 renal = system: CAKI-1 renal
# OVCAR-4 ovarian = system: OVCAR-4 ovarian
# COLO 205 colon = system: COLO 205 colon
# MDA-MB-231 breast = system: MDA-MB-231 breast
# PC-3 prostate = system: PC-3 prostate
Structure (SMILES),TGI (HOP-62 NSCLC) [µM],TGI (NCI-H522 lung) [µM],TGI (786-0 renal) [µM],TGI (UACC-257 melanoma) [µM],TGI (SK-MEL-5 melanoma) [µM],TGI (CAKI-1 renal) [µM],TGI (OVCAR-4 ovarian) [µM],TGI (COLO 205 colon) [µM],GI50 (HOP-62 NSCLC) [µM],GI50 (NCI-H522 lung) [µM],GI50 (MDA-MB-231 breast) [µM],TGI (MDA-MB-231 breast) [µM],GI50 (786-0 renal) [µM],GI50 (UACC-257 melanoma) [µM],GI50 (SK-MEL-5 melanoma) [µM],GI50 (CAKI-1 renal) [µM],GI50 (OVCAR-4 ovarian) [µM],GI50 (COLO 205 colon) [µM],TGI (PC-3 prostate) [µM]
COc1cc([C@@H]2c3cc4c(cc3[C@@H](NCc3ccc(C#N)cc3)C3COC(=O)[C@@H]32)OCO4)cc(OC)c1O (some centres not stated),1.41,2.83,2.32,33.9,8.37,8.83,> 100,6.32,,,,,,,,,,,
CCCC1C(=O)C(CC)Cc2c(OC)ccc(OC)c21 (configuration not stated),> 100,> 100,> 100,> 100,> 100,> 100,> 100,> 100,,,,,,,,,,,
CCCCCCCC(=O)OCC1OC(n2cc(F)c(=O)[nH]c2=O)C(NC(=O)OCc2ccccc2)C(OC(=O)CCCCCCC)C1O (configuration not stated),> 100,72,65.1,> 100,11.1,> 100,83,68.3,,,,,,,,,,,
CC([C@H]1CCC2C3CCC4CC5(CC[C@]4(C)C3CC[C@@]21C)c1ccccc1C(=O)N5C)N(C)C (some centres not stated),> 100,> 100,29.8,,42.9,> 100,> 100,> 100,,,,,,,,,,,
CCCCNC(=O)Oc1ccc2c(=O)c3sc4c(=O)c5ccccc5c(=O)c4c3c(=O)c2c1,0.277,1.64,4.23,0.7,0.224,2.86,2.15,3.5,0.144,0.379,1.39,5.91,1.77,0.237,0.103,1.24,0.977,1.81,
O=C(c1cc2c(C(F)(F)F)onc2c2ccccc12)C(F)(F)F,11.3,6.25,> 45.1,47.5,15.5,20.9,> 100,9.11,,,,,,,,,,,
CC(=O)O[C@H]1CCC2[C@@H]3CCC4Nc5c(cnn5-c5ccccc5)C[C@]4(C)C3CC[C@@]21C (some centres not stated),95.7,29.7,67.5,23.7,22,20.7,71.3,28.9,,,,,,,,,,,
CCC(O)(c1ccc(OC)cc1)C(c1ccc(OCc2ccccc2)cc1)c1ccc(OCc2ccccc2)cc1 (configuration not stated),> 100,> 100,> 100,> 100,> 100,> 100,> 100,> 100,,,,,,,,,,,
O=C(COc1ccc(Cl)cc1)N1N=C(c2ccc([N+](=O)[O-])o2)CC1(O)c1ccccc1 (configuration not stated),35.8,38.6,20.7,15.6,,> 100,26.7,14.8,,,,,,,,,,,
COc1cc2ccc(/C(C)=N/OC(C)=O)cc2cc1OC,,> 100,> 100,> 100,,,> 100,> 100,,,,,,,,,,,
NC1=NC(c2ccccc2)CC(c2cc(Cl)cc(Br)c2O)=N1 (configuration not stated),25.1,15.4,31.5,36.2,25,26.8,41.9,25.6,,,,,,,,,,,
CC(=O)NNC(=S)/N=C/c1c(O)cc(C)oc1=O,> 100,,> 100,> 100,> 100,> 100,> 100,> 100,,,,> 100,,,,,,,> 100
C/C(=N\NS(=O)(=O)c1ccc(C)cc1)c1c(O)cc(C)oc1=O,> 100,,> 100,> 100,> 100,> 100,> 100,,,,,,,,,,,,
Cc1[nH]c2ccccc2c1C1CC(=O)NC1=O (configuration not stated),> 100,,> 100,> 100,> 100,> 100,> 100,,,,,,,,,,,,
CC(Oc1ccc(OCC2CCCCC2)cc1)C(=O)O (configuration not stated),,> 100,> 100,> 100,> 100,,> 100,,,,,,,,,,,,
CCN(CC)CCOC(=O)/C(=C/c1ccc(OC)cc1)c1cc(OC)c(OC)c(OC)c1,31.7,9.32,98.8,19.3,11.4,38,> 100,18.9,,,,,,,,,,,
CC(C)c1cccc(C(C)C)c1N=C(N)C#N,> 100,> 100,> 61.3,> 79.6,> 100,> 100,> 100,> 59.1,,,,,,,,,,,
CCN(CC)C(=O)CNC(=O)OC(C)(C)C,> 100,> 100,> 100,> 100,> 100,> 100,> 100,,,,,,,,,,,,

# — PubChem BioAssay (NCI)
